{"source": "patent US10648968B2", "about": "“In vitro test system to evaluate xenobiotics as immune-modulators of drug transport and metabolism in human hepatocytes” (XenoTech, LLC, priority 2011, dated 2020)", "key": {"[1]": {"settings": "in humans following LPS treatment; correlated with changes in TNF and IL-6; cited from earlier work"}, "CYP1A2": {"tested_on": "CYP1A2", "settings": "co-cultures of hepatocyte and Kupffer cells, three livers, treated daily for 72 hours; phenacetin O-dealkylation by LC/MS/MS"}, "CYP3A4": {"tested_on": "CYP3A4", "settings": "co-cultures of hepatocyte and Kupffer cells, three livers, treated daily for 72 hours; testosterone 6β-hydroxylation by LC/MS/MS"}}}
{"substance": "lipopolysaccharides [LPS]", "values": [{"measurement": "antipyrine (AP) clearance", "setting": "[1]", "value": "changes"}, {"measurement": "CYP1A2 activity", "setting": "CYP1A2", "value": "decrease"}, {"measurement": "CYP3A4 activity", "setting": "CYP3A4", "value": "decrease"}]}
